Consider eight substances from patent US20040071650A1, “Use of cyclosporin 7-thioamide derivatives for hair growth” (priority 2000, published 2004).

“Also recorded” adds a separate entry of the source.

In the first assay the test system is C57BL/6 mice (female). The experiment in a line: Test of hair regrowth effects of 7-thioamide derivatives of cyclosporin on shaved backs of mice. The conditions noted are these: C57BL/6 female mice, 100 μl (0.1% w/v) applied on hair removed back once a day for 30 days; vehicle 32.
Procedure: C57BL/6 mice (female), 42˜49 days old, were used in this test.
First of all, mice were removed of hair on their backs using an electric shaver, and weighed. The mice were divided into several groups with weights equally distributed. After one day of adaptation, cyclosporin A and cyclosporin derivatives were applied over the hair removed area once a day per each individual for 30 days. Here, the applied amount of cyclosporin A and derivatives thereof was 100 μl (0.1% w/v). The degree of hair growth were observed by naked eye. The ratio of the area where hairs newly grew to the hair removed area were determined.
On to “Cyclosporin C 7-thioamide ([Thr]^2-[^7ψ^8 CS—NH] cyclosporin)”, for which the “Area ratio (ratio of the area where hairs newly grew to the hair removed area)” value (“Area ratio” for short) turned out to be 87%.

For “Cyclosporin D 7-thioamide ([Val]^2-[^7ψ^8 CS—NH] cyclosporin)”, the “Area ratio” value was 79%.

Turning to “Cyclosporin G 7-thioamide ([Nva]^2-[^7ψ^8 CS—NH] cyclosporin)”, the “Area ratio” value is recorded as 88%.

Regarding “Cyclosporin B 7-thioamide ([Ala]^2-[^7ψ^8 CS—NH] cyclosporin)”, the “Area ratio” value is listed as 81%.

On to Cyclosporin A [reference compound], for which the “Area ratio” value was 87%.

Staying with this assay, now noted: hair regrowth evaluation of synthesized thioamide derivatives.
For “Cyclosporin A 4-thioamide [cyclosporin 4-thioamide, reference compound]”, the “hair regrowth effect (in words)” value is reported as “not all of those derivatives have hair regrowth effect, but only cyclosporin 7-thioamide”.

“Cyclosporin A 7-thioamide ([^7ψ^8 CS—NH] cyclosporin A) [cyclosporin 7-thioamide]”: the “hair regrowth effect (in words)” value was “does have the hair regrowth effect; also recorded: superior hair regrowth (restoring) effect to any other compounds”.

“Cyclosporin A 4,7-bis(thioamide) [cyclosporin 4,7-bis(tioamide), reference compound]”: the “hair regrowth effect (in words)” value is “not all of those derivatives have hair regrowth effect, but only cyclosporin 7-thioamide”.

Another assay relates to mouse's back.
Experiment: not given
The conditions noted are these: comparative experiments on mouse's back; cited from earlier work.
Consider Cyclosporin A [reference compound], for which the “hair regrowth effect relative to minoxidil” value is reported as “about 100 times”.
